Drawing on ChEMBL document CHEMBL1201862, “PubChem BioAssay data set” (2004), this text covers AC50, IC50 and EC50 for ten compounds.

Activity calls are given as the source filed them.

Assay [1] can be described thus: viability loss in HepG2 hepatoma cells – cell-based, ATP luminescence, cherry-pick, activator set 2, cytotoxicity control, dose response (AID 1053143). In kind it is functional.
Assay [2] concerns the target T1, Small ubiquitin-related modifier 1 (Homo sapiens, UniProt P63165). Put plainly: SUMO1 protein interaction blockers, potency – biochemical, fluorescence polarization, uHTS hits, dose response (AID 624382). In kind it is functional. Particulars: read-out: IC50_Mean. In general terms: Fluorescence polarisation rises when a labelled molecule tumbles more slowly, as on binding a larger partner.

In assay [3] the target is T2, Probable nicotinate-nucleotide adenylyltransferase (Staphylococcus aureus (strain N315), UniProt P65502). Format: functional, Staphylococcus aureus subsp. aureus N315.
T2 sequence (P65502 whole entry): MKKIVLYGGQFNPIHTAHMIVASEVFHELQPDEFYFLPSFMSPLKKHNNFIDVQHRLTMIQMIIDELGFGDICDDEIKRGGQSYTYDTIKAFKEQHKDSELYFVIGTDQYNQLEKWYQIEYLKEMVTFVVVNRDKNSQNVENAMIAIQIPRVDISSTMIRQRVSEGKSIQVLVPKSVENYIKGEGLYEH
For assay [4], the target named is T2, Probable nicotinate-nucleotide adenylyltransferase. Format: functional, Staphylococcus aureus subsp. aureus N315. Particulars: read-out: IC50_Mean.
The target of assay [5] is T1, Small ubiquitin-related modifier 1. Put plainly: SUMO1 protein-protein binding blockers, potency – biochemical, FRET, dose response (AID 624383). In kind it is functional. Particulars: read-out: IC50_Mean.
Assay [6] has as its target Intestinal-type alkaline phosphatase (Mus musculus, UniProt P24822). Put plainly: PubChem AID 488785. Format: functional.
Assay [7] has as its target T3, Alkaline phosphatase, tissue-nonspecific isozyme (Homo sapiens, UniProt P05186).
T3 sequence (P05186 whole entry): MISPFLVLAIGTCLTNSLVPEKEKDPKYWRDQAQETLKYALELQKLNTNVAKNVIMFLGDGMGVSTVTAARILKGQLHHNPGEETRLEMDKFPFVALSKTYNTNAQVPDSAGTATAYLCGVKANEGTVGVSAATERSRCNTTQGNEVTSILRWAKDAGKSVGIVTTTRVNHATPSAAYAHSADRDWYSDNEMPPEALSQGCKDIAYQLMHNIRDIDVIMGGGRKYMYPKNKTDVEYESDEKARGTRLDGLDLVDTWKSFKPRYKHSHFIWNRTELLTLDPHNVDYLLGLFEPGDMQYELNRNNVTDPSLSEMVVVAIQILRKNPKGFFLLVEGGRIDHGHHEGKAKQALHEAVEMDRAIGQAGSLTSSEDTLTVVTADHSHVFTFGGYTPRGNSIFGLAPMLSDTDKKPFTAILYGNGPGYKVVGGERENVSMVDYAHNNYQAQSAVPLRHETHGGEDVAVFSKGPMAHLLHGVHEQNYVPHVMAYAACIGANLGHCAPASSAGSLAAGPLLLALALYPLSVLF
The assay is described as follows: TNAP enzyme inhibition by screening hits, dose response, selectivity assay for mouse IAP inhibitor project, biochemical, human TNAP, uHTS hits (AID 488906). In kind it is functional.

The target of assay [8] is Intestinal-type alkaline phosphatase (Homo sapiens, UniProt P09923). Put plainly: inhibition of human intestinal alkaline phosphatase – biochemical, dose response (AID 488876). In kind it is functional.
Sequence of Intestinal-type alkaline phosphatase (Homo sapiens, UniProt P09923) (P09923 whole entry): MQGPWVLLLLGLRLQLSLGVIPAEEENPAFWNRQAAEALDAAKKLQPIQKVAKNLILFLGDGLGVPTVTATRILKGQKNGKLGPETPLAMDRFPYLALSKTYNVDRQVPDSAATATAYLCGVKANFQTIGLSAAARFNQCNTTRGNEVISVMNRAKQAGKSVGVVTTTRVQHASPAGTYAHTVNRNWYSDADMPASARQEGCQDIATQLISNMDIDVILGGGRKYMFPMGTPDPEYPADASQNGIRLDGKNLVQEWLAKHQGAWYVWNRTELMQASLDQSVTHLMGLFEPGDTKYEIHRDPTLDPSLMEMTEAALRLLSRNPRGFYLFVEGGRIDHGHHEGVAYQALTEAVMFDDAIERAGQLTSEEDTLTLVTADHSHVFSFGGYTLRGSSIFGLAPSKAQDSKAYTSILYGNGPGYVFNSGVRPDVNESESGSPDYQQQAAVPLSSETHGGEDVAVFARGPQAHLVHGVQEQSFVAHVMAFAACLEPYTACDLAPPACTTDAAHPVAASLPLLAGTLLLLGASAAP
Assay [9] is described as follows: T. cruzi growth inhibition in host cells, dose response, cell-based, plate reader, dry powder, set 2 (AID 652275). Format: functional.
The next assay concerns the target Paired box protein Pax-8 (Homo sapiens, UniProt Q06710). The assay is described as follows: PAX8 transcriptional activity inhibition in RMG-I – RMG-I cells, luciferase, cherry-pick, dose response (AID 687027).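 Further: luciferase reporter driven by Pax8 target thyroperoxidase promoter measured by SteadyGlo luminescence.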 Format: functional, cell-based.
A short description of assay [10]: OVCAR-3 cell viability loss – plate reader, dry powder samples, PAX8 inhibitor project, dose response (AID 743044). Format: functional, cell-based.
The nature of assay [11]: OVCAR8 cell viability loss – plate reader, dry powder samples, PAX8 project, dose response (AID 743197). In kind it is functional, cell-based. Particulars: OVCAR-8.
The target in assay [12] is T4, Long-chain-fatty-acid--AMP ligase FadD28 (Mycobacterium tuberculosis, UniProt P9WQ59).
T4 sequence (P9WQ59 whole entry): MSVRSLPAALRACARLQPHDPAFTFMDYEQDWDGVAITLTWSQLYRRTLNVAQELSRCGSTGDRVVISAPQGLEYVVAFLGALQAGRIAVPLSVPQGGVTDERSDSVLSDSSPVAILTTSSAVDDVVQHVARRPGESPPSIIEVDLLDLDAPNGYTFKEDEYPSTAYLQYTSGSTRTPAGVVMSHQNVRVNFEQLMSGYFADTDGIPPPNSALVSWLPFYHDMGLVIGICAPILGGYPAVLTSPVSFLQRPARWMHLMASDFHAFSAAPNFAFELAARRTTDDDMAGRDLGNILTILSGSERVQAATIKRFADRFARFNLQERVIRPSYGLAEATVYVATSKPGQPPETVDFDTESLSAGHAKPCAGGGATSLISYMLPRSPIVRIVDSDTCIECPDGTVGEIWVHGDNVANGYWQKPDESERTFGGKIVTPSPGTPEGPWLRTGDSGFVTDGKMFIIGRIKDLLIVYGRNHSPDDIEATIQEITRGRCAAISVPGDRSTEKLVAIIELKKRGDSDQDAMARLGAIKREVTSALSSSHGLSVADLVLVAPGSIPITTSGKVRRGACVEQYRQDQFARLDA
The assay is described as follows: Fluorescence polarization aasay to screen for inhibitors that compete for the binding of FadD28 to a bisubstrate Measured in Biochemical System Using Plate Reader - 2147-01_Inhibitor_Dose_CherryPick_Activity. In kind it is functional, Mycobacterium tuberculosis H37Rv.

The target of assay [13] is T5, Endoribonuclease toxin MazF (Escherichia coli K-12, UniProt P0AE70).
T5 sequence (P0AE70 whole entry): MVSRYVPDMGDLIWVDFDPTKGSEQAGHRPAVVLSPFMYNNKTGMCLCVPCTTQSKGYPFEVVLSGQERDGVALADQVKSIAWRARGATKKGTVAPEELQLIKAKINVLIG
Put plainly: activation of MazEF endoribonuclease cleavage – biochemical, fluorescence, single-stranded RNA substrate, uHTS hits, dose response (AID 588481). Format: functional.

Assay [14] has as its target T5, Endoribonuclease toxin MazF. Put plainly: substrate-only fluorescence increase artefacts – biochemical, single-stranded RNase substrate, counter-screen for MazEF activator project, dose response (AID 588502). Format: functional. A general note: A counterscreen serves to expose hits that act by an unwanted route or on another target.
Assay [15] can be described thus: bead-based luminescence quenchers, dual-tagged ARNT – biochemical, AlphaScreen, cherry-pick, artefact control for ARNT-TACC3 interaction inhibitor project, dose response (AID 651705).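 Further: AlphaScreen bead proximity signal that flags compounds interfering with the detection technology; potency reflects signal decrease which marks the compound as an assay artifact.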 Format: functional. Background: Bead proximity is the source of the signal in Alpha formats.

T1 sequence (P63165 whole entry): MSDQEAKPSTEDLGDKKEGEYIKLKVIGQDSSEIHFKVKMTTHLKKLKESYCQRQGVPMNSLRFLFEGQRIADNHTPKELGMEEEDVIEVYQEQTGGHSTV
Sequence of Intestinal-type alkaline phosphatase (Mus musculus, UniProt P24822) (P24822 whole entry): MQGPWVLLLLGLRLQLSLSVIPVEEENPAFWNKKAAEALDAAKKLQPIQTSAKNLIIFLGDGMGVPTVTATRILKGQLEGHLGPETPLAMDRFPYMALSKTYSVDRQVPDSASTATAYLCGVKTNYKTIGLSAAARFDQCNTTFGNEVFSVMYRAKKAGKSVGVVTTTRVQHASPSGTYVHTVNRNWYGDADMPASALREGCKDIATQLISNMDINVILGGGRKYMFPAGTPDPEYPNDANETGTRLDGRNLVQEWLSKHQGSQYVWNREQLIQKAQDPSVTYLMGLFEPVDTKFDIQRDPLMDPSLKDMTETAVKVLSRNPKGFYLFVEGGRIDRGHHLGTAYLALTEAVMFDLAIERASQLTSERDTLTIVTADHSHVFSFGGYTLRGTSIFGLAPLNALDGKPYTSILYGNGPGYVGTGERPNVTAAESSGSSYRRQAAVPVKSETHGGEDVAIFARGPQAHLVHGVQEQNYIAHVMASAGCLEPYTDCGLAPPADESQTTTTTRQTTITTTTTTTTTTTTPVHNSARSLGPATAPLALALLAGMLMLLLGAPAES
Sequence of Paired box protein Pax-8 (Q06710 whole entry): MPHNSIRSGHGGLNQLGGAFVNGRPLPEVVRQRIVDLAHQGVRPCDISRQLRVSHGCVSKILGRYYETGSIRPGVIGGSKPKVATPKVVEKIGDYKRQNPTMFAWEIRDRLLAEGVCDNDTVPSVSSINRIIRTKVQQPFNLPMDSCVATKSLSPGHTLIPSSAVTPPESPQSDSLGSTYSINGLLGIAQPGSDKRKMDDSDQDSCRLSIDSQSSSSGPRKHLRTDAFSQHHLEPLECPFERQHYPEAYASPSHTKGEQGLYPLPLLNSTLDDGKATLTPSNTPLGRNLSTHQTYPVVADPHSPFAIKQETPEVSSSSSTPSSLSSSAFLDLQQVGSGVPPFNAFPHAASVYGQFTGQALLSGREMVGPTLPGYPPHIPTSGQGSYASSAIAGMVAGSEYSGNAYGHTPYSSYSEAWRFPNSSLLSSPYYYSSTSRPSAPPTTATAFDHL

By AC50 is commonly meant the concentration giving half of the maximal activity seen. On to `Cc1ccc(NC(=O)Nc2ccc(F)c(Cl)c2)cc1`, for which the AC50 in assay [1] was 33.1 µM (active).

With `CC(C)C[C@@H](CNCC(=O)[C@H](CC(=O)O)NC(=O)c1nc[nH]c1C(=O)N[C@H](CN)CC(C)C)NC(=O)c1[nH]cnc1C(=O)N[C@@H](Cc1ccccc1)C(=O)O`, the IC50 in assay [2] was 50.1 µM (inactive); in [3] it was 12.4 µM (active); in assay [4] it was 44 µM (active); in assay [5], 5.92 µM (active).

With `CCOc1ccccc1CNC(=O)CCNS(=O)(=O)c1ccc2nc(O)oc2c1`, the IC50 in assay [6] was 2.65 µM (active); in assay [7], 22.7 µM (active); in [8], > 100 µM (inactive).

As for `C[C@@H]1CCCCO[C@H](CN(C)Cc2ccc(Cl)c(Cl)c2)[C@@H](C)CN([C@H](C)CO)C(=O)c2cc(N(C)C)ccc2O1`, in assay [9], the AC50 was 2.73 µM (active).

`C[C@@H]1CN([C@H](C)CO)C(=O)c2cc(NC(=O)Nc3ccc(C(F)(F)F)cc3)ccc2O[C@@H](C)CCCCO[C@@H]1CN(C)C(=O)c1ccccc1`: the values for the AC50 (on Paired box protein Pax-8; in assay [10]; in assay [11]) were 5.42 µM (active), 7.17 µM (active) and > 70 µM (inactive), respectively.

Take `CC(C)N1CC2(CN(Cc3ccc(F)cc3)C2)Oc2c(NC(=O)c3ccncc3)cccc2C1=O`: the AC50 in [9] is 0.876 µM (active).

In the case of `COCCn1c(C)cc(/C=N/NC(=O)c2cc3ccccc3cc2O)c1C`, the AC50 in [12] is 17.4 µM (active).

Consider `Cn1/c(=N\C(=O)c2ccco2)sc2cccc(F)c21`, for which, in assay [1], the AC50 was 25.3 µM (active).

For orientation: EC50 means the midpoint of the concentration-response curve. Regarding `C#CCN1c2ccccc2Sc2cccnc21`, the EC50 in assay [13] was > 99 µM (inactive); in assay [14], 85.6 µM (inactive).

With `NCCc1c[nH]cn1` [HISTAMINE], in assay [15], the AC50 is 106 µM (active).
